Reference: US20140256555A1, “METHODS FOR TREATING FLOWERING PLANTS WITH RIBOSE” (RiboCor, Inc., priority 2013, published 2014)

Assays:
[1] = tested on: flowering plants; test: Watering of house plants with D-ribose solution, observation of blooming; type: in vivo; details: 5 grams of D-ribose to one gallon of water, after MIRACLE-GRO was stopped
Text: (§1) Plants treated with a solution of D-ribose in this example included Orchids, Christmas Cactus, Palm, Mother's-in-law Tongue/Snake Plant, Rosemary, Bamboo, Pothos, Hibiscus, Jade, Purple Passion, Aloe vera, Schefflera, Cacti, and Norfolk Island Pine.
(§2) The use of MIRACLE-GRO liquid plant food was stopped, then the use of a solution of D-ribose to treat the plants was started. Each week a fresh solution of D-ribose was made using 5 grams of D-ribose to one gallon of water.
Specific observations are noted below. While all the plants were extremely healthy and grew exceptionally well, traditional flowering varieties performed amazingly well.

[2] = tested on: Orchids; test: Watering with D-ribose solution, blooming of orchids; type: in vivo; details: 5 grams of D-ribose to one gallon of water
Text: as §1, §2
The first subject was an orchid which had not bloomed in six plus years.

[3] = tested on: Christmas Cactus; test: Watering with D-ribose solution, blooming of Christmas Cactus; type: in vivo; details: typically blooms only around Christmas and Easter; 5 grams of D-ribose to one gallon of water
Text: as §1, §2
This variety of plant typically only blooms around the Christmas and Easter holidays each year for a few weeks up to a month or so, then it stops blooming.

[4] = tested on: Hibiscus; test: Watering with D-ribose solution, blooming of Hibiscus; type: in vivo; details: indoors for the winter months; 5 grams of D-ribose to one gallon of water
Text: as §1, §2
This plant was taken inside in October for the winter months.

[5] = tested on: Palm; test: Watering with D-ribose solution, blooming of Palm; type: in vivo; details: plant had not bloomed in approximately fifteen years; 5 grams of D-ribose to one gallon of water
Text: as §1, §2
This is typically regarded as a non-flowering type of plant. This plant had not bloomed in approximately fifteen years.

[6] = tested on: Snake Plant; test: Watering with D-ribose solution, blooming of Snake Plant; type: in vivo, Mother's-in-law Tongue/Snake Plant; details: had not bloomed in over 15 years, indoor plant; 5 grams of D-ribose to one gallon of water
Text: as §1, §2
This is another example of plant typically regarded as a non-flowering type plant. […] It had not bloomed in over 15 years. While flowers on this plant are not unheard of, it is uncommon to bloom in the Minnesota climate and as an indoor plant.

[7] = tested on: Purple Waffle; test: Growth of Purple Waffle plants over a 9 month period with weekly feeding; type: in vivo; details: 1× (1.5 mg/ml) or 2× (3 mg/ml) D-ribose weekly, versus control and MIRACLE-GRO fed plant
Protocol: The growth of four plants was observed over a 9 month period. One plant was not fed (control), but watered weekly. One plant was fed MIRACLE-GRO liquid plant food weekly based on product instructions of feeding every time you water by squeezing 10-20 drops into 1 quart of water. One plant was fed 1× (1.5 mg/ml) D-ribose weekly. One plant was fed 2× (3 mg/ml) D-ribose weekly.

**Q.** Which “blooming observed in treated plants” value [1] does the source give for `O=C[C@H](O)[C@H](O)[C@H](O)CO` [D-ribose] here?
**A.** Sustained blooming in many of the flowering plants

**Q.** And the “blooming, first orchid” value ([2]; orchid which had not bloomed in six plus years)?
**A.** sparked two new stems full of blooms

**Q.** And the “blooming, second orchid” value ([2]; orchid which had not bloomed in three plus years)?
**A.** showed the same results as subject one

**Q.** What about the blooming [3] of the same molecule?
**A.** started to bloom early and sustained an abundance of continued blooms

**Q.** What about the blooming [4] of the same molecule?
**A.** continuously bloomed

**Q.** What about the “blooming / flowering growth” value [5] of the same molecule?
**A.** grew an unusual type of growth that appeared to be a flowering/seed mechanism on two different stems

**Q.** What about the “blooming / flowering growth” value [6] of the same molecule?
**A.** grew unusual growths that appeared to be some type of flowering appendage

**Q.** What about the branching [7] of the same molecule?
**A.** increased branching compared to both the control and the MIRACLE-GRO fed plant
